Four compounds from PMC12181424, “A genetically tractable branch of environmental Pedobacter from the phylum Bacteroidota represents a hotspot for natural product discovery” (Scientific Reports, 2025) can be followed below.

Assay [1] deals with P. cryoconitis PAMC 27485. In words: Antibiotic sensitivity screen of wild-type strain (choice of selection marker). Format: cell-based, Pedobacter cryoconitis. The note with it: P. cryoconitis PAMC 27485 wild type. The text has this:
(§1) We built a random transposon insertion plasmid (pCRYO1 (Fig. S2)) based on a HIMAR transposon pSAMbt system, initially designed for Bacteroides thetaiotaomicron in which we introduced the constitutive P. cryoconitis promoters of gyrB and rpl13 and used erythromycin as a resistance marker[41] (Fig. 3A). We obtained erythromycin-resistant clones by conjugation and electroporation and confirmed the presence of the ermR gene by colony PCR (Material and Methods).
(§2) To genetically modify P. cryoconitis, we first screened different antibiotics (streptomycin, ampicillin, kanamycin, apramycin, chloramphenicol, and erythromycin) against P. cryoconitis PAMC 27485 and P. cryoconitis DSM 14825^T. Only erythromycin (100 µg/ml) and chloramphenicol (150 µg/ml) were effective and selected as markers. A transposon plasmid, pCRYO-01 was modified based on pSAM bt[30] by assembling PCR-amplified regions upstream of the P. cryoconitis PAMC 27485 gyrB (AMQ00279.1, 228 bps) and rpl13 genes (AMQ00867.1, 178 bps) with the erythromycin resistance (ermR) and the transposase genes via Gibson Assembly. PCR reactions were carried out using Q5 polymerase (New England Biolabs) as specified by the manufacturer. Conjugation experiments were performed using E. coli WM3064/pCRYO-01 and P. cryoconitis (overnight cultures) on LB, POM, and R2A (with 5 mM final MgCl2) agar with different donor-recipient ratios (1:1, 2:1, 3:1) for 48 h. Cells were scraped off, serially diluted, and plated on R2A agar plates with erythromycin (50, 100, 150, and 200 µg/ml). Erythromycin-resistant colonies were tested for ermR presence and plasmid backbone absence by colony PCR. A 3:1 donor-recipient ratio at 23 °C yielded the highest number of transformants. Dilution of the inoculum at 10^− 1 or 10^− 2 was optimal for single colonies, with more transformants observed in P. cryoconitis PAMC 27485 compared to P. cryoconitis DSM 14825^T. For electroporation, P. cryoconitis PAMC 27485 cells (OD 0.4) were made competent by washing 3-times with ice-cold 10% glycerol (centrifugation at 5000 rpm). Aliquots of 50 µl were mixed with pCRYO1. After electroporation (12.5 kV/cm), cells were cultured without antibiotics for 5 h, then plated on R2A with 150 µg/ml erythromycin. Colonies appeared within 3 days, with 100% carrying the transposon cassette, though efficiency was lower than with conjugation. Electroporation of competent cells stored at -80 °C was also possible.

For assay [2], the system named is P. cryoconitis DSM 14825^T. The description is as above. The settings on record: P. cryoconitis DSM 14825^T wild type. The class given is cell-based, Pedobacter cryoconitis.
Excerpt: as §1, §2

The test system of assay [3] is Escherichia coli ATCC35218. Format: cell-based.
For assay [4], the system named is human cysteine protease cathepsin B. Nature of the assay: Cysteine protease inhibition testing. The settings on record: tested concentration 20 µM; procedure of Brinkmann et al. Format: biochemical.
In assay [5] the test system is Staphylococcus aureus ATCC33592. The class given is cell-based.
The subject of assay [6] is bacterial and fungal indicator strains. Nature of the assay: Screening against bacterial and fungal indicator strains (whole panel, as summarised in the text). The class given is cell-based. The settings on record: summary in the text of Table S11; no growth inhibitory effects.
Assay [7] has as its system Septoria tritici MUCL45407. Format: cell-based.
The test system of assay [8] is Mycobacterium smegmatis ATCC607. The class given is cell-based.
Assay [9] deals with human cysteine protease cathepsin L. In words: Cysteine protease inhibition testing. The class given is biochemical. The note with it: tested concentration 20 µM; procedure of Brinkmann et al.
Assay [10] has as its system Candida albicans FH2173. The class given is cell-based.
The subject of assay [11] is rhodesain. The settings on record: tested concentration 20 µM; procedure of Brinkmann et al. The text has this:
The cryopeptins are linear lipopeptides containing the non-proteinogenic amino acid dehydrovaline. This amino acid is a rare building block, and its occurrence is yet limited to linear peptides. For instance, dehydrovaline is found in cytotoxic yakuamides from the sponge Ceratopsion sp[42]. and in the myxobacterial antibiotic myxovalargin[43]. […] In addition, 4 and 5 underwent screening against the human cysteine proteases cathepsin B and L, and rhodesain, the cysteine protease of Trypanosoma brucei rhodesiense according to the procedure described in[45].
The minimum inhibitory concentrations (MIC) of pure compounds were determined as described by Orban et al.3 Pure compounds were screened against Escherichia coli ATCC35218, Mycobacterium smegmatis ATCC607, Staphylococcus aureus ATCC33592, Candida albicans FH2173 and Septoria tritici MUCL45407. Protease testings (human cysteine proteases cathepsin B and L, trypanosomal cysteine protease rhodesain) were performed at concentrations of 20 μM as described in Brinkmann et al.4.

Non-standard residues stand in square brackets, D forms with d. Residues, ends and D or L forms follow the SMILES beside them. *: point of attachment. Isovaleryl = CC(C)CC(=O)*; ΔVal = CC(C)=C(N)C(=O)O; X1 = CC[C@H](C)C(=O)* Some results are limits rather than exact numbers.

`O=C(N[C@H](CO)[C@H](O)c1ccc([N+](=O)[O-])cc1)C(Cl)Cl` [chloramphenicol]: the “concentration that inhibited the growth of the wild-type strain” value in assay [1] and in assay [2] was 150 µg/mL throughout.

`CC[C@H](C)C(=O)N[C@@H](Cc1ccccc1)C(=O)NC(C(=O)N[C@@H](CCCNC(=N)N)C(=O)NC(C(=O)N[C@@H](CC(C)C)C(=O)O)=C(C)C)=C(C)C` [cryopeptin D (4)] (X1-F[ΔVal]R[ΔVal]L-OH): in [3], the “MIC Escherichia coli ATCC 35218” value was more than 128 µg/mL. Further, in assay [4], the “protease inhibitory activity, cathepsin B” value is “no protease inhibitory activity was observed”. For the same compound, the “MIC Staphylococcus aureus ATCC 33592” value in [5] is reported as more than 128 µg/mL. Also, the “Minimal inhibitory concentration against bacterial and fungal indicator strains” value in assay [6] is more than 128 µg/mL. Further, in [7], the “MIC Septoria tritici MUCL45407” value is recorded as more than 128 µg/mL. Moreover, the “MIC Myobacterium smegmatis ATCC607” value in assay [8] is listed as more than 128 µg/mL. Besides, the “protease inhibitory activity, cathepsin L” value in assay [9] is recorded as “no protease inhibitory activity was observed”. In assay [10], the “MIC Candida albicans FH2173” value was more than 128 µg/mL. The “protease inhibitory activity, rhodesain” value in assay [11] is recorded as “no protease inhibitory activity was observed”.

With `CC(C)=C(NC(=O)[C@H](Cc1ccccc1)NC(=O)CC(C)C)C(=O)N[C@@H](CCCNC(=N)N)C(=O)NC(C(=O)N[C@@H](CC(C)C)C(=O)O)=C(C)C` [cryopeptin E (5)] (Isovaleryl-F[ΔVal]R[ΔVal]L-OH; N-terminus and C-terminus assumed), in assay [3], the “MIC Escherichia coli ATCC 35218” value is on record as more than 128 µg/mL. In addition, the “protease inhibitory activity, cathepsin B” value in [4] was “no protease inhibitory activity was observed”. Further, the “MIC Staphylococcus aureus ATCC 33592” value in [5] is reported as more than 128 µg/mL. The “MIC Septoria tritici MUCL45407” value in assay [7] is more than 128 µg/mL. Further, in assay [8], the “MIC Myobacterium smegmatis ATCC607” value is given as more than 128 µg/mL. In addition, the “protease inhibitory activity, cathepsin L” value in assay [9] is on record as “no protease inhibitory activity was observed”. The “MIC Candida albicans FH2173” value in assay [10] is more than 128 µg/mL. For the same compound, in [11], the “protease inhibitory activity, rhodesain” value was “no protease inhibitory activity was observed”.

In the case of `CC[C@H]1OC(=O)[C@H](C)[C@@H](O[C@H]2C[C@@](C)(OC)[C@@H](O)[C@H](C)O2)[C@H](C)[C@@H](O[C@@H]2O[C@H](C)C[C@H](N(C)C)[C@H]2O)[C@](C)(O)C[C@@H](C)C(=O)[C@H](C)[C@@H](O)[C@]1(C)O` [erythromycin], the “concentration that inhibited the growth of the wild-type strain” value in assay [1] and in [2] was 100 µg/mL throughout.
